Results: ChEMBL document CHEMBL1201862, “PubChem BioAssay data set” (2004)
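Assay format: 96-well plates, 48-hour exposure. GI50 = concentration required for 50% inhibition of growth.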 Activity calls are given as the source filed them. Cut-off read from the data, not from the text of the source: active = GI50 up to about 1.1 µM and inactive = higher.

What was measured:
Assay in all cases: DTP human tumour cell line panel, 48 h
A498 = tested on: A498
HL-60 = tested on: HL-60
HOP-62 = tested on: HOP-62
HT-29 = tested on: HT-29
MDA-N = tested on: MDA-N
NCI-H226 = tested on: NCI-H226
NCI-H522 = tested on: NCI-H522
OVCAR-8 = tested on: OVCAR-8
SF-539 = tested on: SF-539
SK-MEL-2 = tested on: SK-MEL-2
SK-MEL-5 = tested on: SK-MEL-5
SK-OV-3 = tested on: SK-OV-3
SN12C = tested on: SN12C
U-251 = tested on: U-251
UACC-257 = tested on: UACC-257
IGROV-1 = tested on: IGROV-1
K562 = tested on: K562
NCI/ADR-RES = tested on: NCI/ADR-RES
RPMI-8226 = tested on: RPMI-8226
Malme-3M = tested on: Malme-3M

Row | Structure (SMILES) | GI50 (A498) | GI50 (HL-60) | GI50 (HOP-62) | GI50 (HT-29) | GI50 (MDA-N) | GI50 (NCI-H226) | GI50 (NCI-H522) | GI50 (OVCAR-8) | GI50 (SF-539) | GI50 (SK-MEL-2) | GI50 (SK-MEL-5) | GI50 (SK-OV-3) | GI50 (SN12C) | GI50 (U-251) | GI50 (UACC-257) | GI50 (IGROV-1) | GI50 (K562) | GI50 (NCI/ADR-RES) | GI50 (RPMI-8226) | GI50 (Malme-3M)
1 | CCCCC1C=Cn2c(=O)oc3c(OC(C)C)c(OC(C)C)c(O)c1c32 (stereo unspecified) | 17.1 µM (inactive) | 4.56 µM (inactive) | 20.7 µM (inactive) | 14.6 µM (inactive) | 20.9 µM (inactive) | 14 µM (inactive) | 11.6 µM (inactive) | 14.9 µM (inactive) | 23.6 µM (inactive) | 15.3 µM (inactive) | 14.7 µM (inactive) | 25.2 µM (inactive) | 20.5 µM (inactive) | 16 µM (inactive) | 15.6 µM (inactive) |  |  |  |  | 
2 | CCC1C(c2cccc(OC)c2O)c2cc3c(cc2OC1N1CCCC1)OCO3 (stereo unspecified) |  |  | 18.4 µM (inactive) | 16.5 µM (inactive) | 3.24 µM (inactive) |  | 10.7 µM (inactive) | 20.6 µM (inactive) | 12.2 µM (inactive) | 17.1 µM (inactive) | 10.4 µM (inactive) |  | 18.1 µM (inactive) |  | 17.8 µM (inactive) | 14.9 µM (inactive) | 11.8 µM (inactive) | 15.7 µM (inactive) | 12.6 µM (inactive) | 
3 | C/C(=C\C(=N\NC(=N)N)c1ccccc1)c1ccccc1 |  |  | 0.0822 µM (active) | 0.354 µM (active) | 0.973 µM (active) | 1.15 µM (inactive) | 0.452 µM (active) | 1.24 µM (inactive) | 0.432 µM (active) |  | 0.281 µM (active) | 4.3 µM (inactive) | 0.454 µM (active) | 0.652 µM (active) |  | 0.432 µM (active) | 1.53 µM (inactive) | 2.78 µM (inactive) | 1.01 µM (active) | 1.16 µM (inactive)
4 | CCOC(=O)c1cn(CC)c(=O)n2c1nc1ccccc12 | 32.4 µM (inactive) |  | > 100 µM (inactive) | 36.7 µM (inactive) | > 100 µM (inactive) | 44.3 µM (inactive) |  | 38.3 µM (inactive) | 55.5 µM (inactive) | > 100 µM (inactive) | 49.8 µM (inactive) |  | > 100 µM (inactive) | > 100 µM (inactive) | > 100 µM (inactive) | 33.3 µM (inactive) | 42.1 µM (inactive) | 62.5 µM (inactive) | 24.4 µM (inactive) | 
